Test results: patent US20020025512A1, “FLUORESCENCE POLARIZATION- BASED DIAGNOSTIC ASSAY FOR EQUINE INFECTIOUS ANEMIA VIRUS” (priority 1998, published 2002)
No end group written: not given here. *: point of attachment. 5FAM = O=C1OC2(c3ccc(O)cc3Oc3cc(O)ccc32)c2ccc(C(=O)*)cc21

Key:
[1] = tested on: serum antibodies to equine infectious anemia virus; test: Fluorescence polarization (FP) assay of fluorescein-labeled peptides with diluted horse serum; assay type: binding; conditions: for FP interaction with EIAV-positive sera: EIAV-positive sera incl. R51 FP-nonreactive samples; for FP signal of R51 with positive sera: approx. 2 nM peptide, 1:100 serum, 50 mM sodium phosphate pH 6.8, 20 min, 5CF vs 6CF label; for FP reactivity with experimentally infected serum: Pony 95 serum
Experimental: Several different buffer compositions and detergents were therefore tested for compatibility with horse serum. When horse serum was diluted 1:50 or 1:100 into 20-50 mM sodium phosphate without NaCl, this problem was virtually eliminated. […] Under the low-salt conditions, the polarization of peptide R51-5CF increased from 50 mP to over 200 mP with a 1:100 dilution of a strong positive EIAV antiserum from an experimental infection (Pony 95). Thus it was determined that the optimal buffer composition for the FP assay was 50 mM sodium phosphate, pH 6.8-7.0.
(§1) Fluorescence Polarization (FP) Measurements. The fluorescein-labeled peptides were evaluated for their suitability as probes for FP using an FPM-1 Fluorescence Polarization Analyzer (Jolley Consulting and Research, Grayslake, Ill.) batch mode with the following settings: PMT gain 80, heater off, single read. Serum was diluted 1:100 or 1:50 into 2 mL of buffer in 12×75 mm borosilicate glass tubes (VWR). After reading the blank, fluorescently labeled peptide was added to a final concentration of 1-2 nM (100K-200K total intensity) and incubated for at least 15 minutes. The FP of the sample was measured and expressed as millipolarization units (mP). Some of the sera were very dark, presumably due to hemolysis. If such a serum sample had low lamp feedback (<0.63), a two-fold further dilution was tested. Polarization data was output to a computer running the FPM-1 data collection software, then converted to an ASCII text file and imported into the Quattro Pro spreadsheet program (Corel, Ottawa, Ontario) for data analysis and graphing.
Because different fluorescein linkages can result in differences in sensitivity in the FP assay, R51 peptide was labeled with 6-carboxyfluorescein so the difference between the two labels could be ascertained. […] Peptides (approx. 2 nM) were incubated with a 1:100 dilution of serum in 50 mM sodium phosphate, pH 6.8, for 20 minutes. The results are shown in FIG. 2, in order of decreasing peptide length. In FIG. 2, black bars show the results for experimentally-infected (pony 95), hatched bars for field infected ([…]), gray bars for uninfected (Petite), and white bars for no serum added. […] As the R51-6CF probe was the most sensitive to the positive sera tested, 6-carboxyfluorescein is the preferred fluorophore. However, other fluorophores, such as rhodamine, BODIPY™ M, Texas Red™ and Lucifer yellow, could also be used. For a detailed listing of a variety of commercially available fluorophores, see Handbook of Fluorescent Probes and Research Chemicals, ed. Karen Larison, by Richard P. Haughland, Ph.D., 5th ed., 1992, published by Molecular Probes, Inc.

anti-EIAV IgG = test: Fluorescence polarization of probe peptides with purified IgG from field-infected horse (Lady); assay type: binding; conditions: for change in FP with purified antibodies from field-infected animal: Lady IgG
Experimental: Due to problems encountered with testing horse serum, the initial evaluation made use of purified IgG from a reference long-term, field-infected horse (Lady). Purified IgG from field infected horse serum (100 μg/ml) was incubated with the candidate probe peptides (2 nM) in PBS for 20 min. The results are shown in FIG. 1, wherein black bars indicate probe added to IgG and gray bars indicate probe in buffer alone. All peptides were the 5-carboxyfluorescein derivatives. […] The other peptides in the panel had only slight changes in polarization in the presence of Lady IgG.
as §1

[2] = tested on: anti-EIAV antibodies in horse sera; test: Anti-fluorescein capture ELISA; assay type: binding; conditions: for ELISA reactivity: Pony 95 and Lady sera; for reactivity in the anti-fluorescein ELISA: general statement of Example 3; for ELISA reactivity with FP-nonreactive sera: sera 1:50, FP-nonreactors from Texas
Experimental: Anti-Fluorescein Capture ELISA. In order to measure antibody binding to test peptides without regard to their suitability for FP, an anti-fluorescein capture ELISA was used. To each well of an Immulon 2 HB 96-well plate (Dynex, Chantilly, Va.) was added 50 μL rabbit anti-fluorescein antibody (Molecular Probes), 3.5 μg/ml in 50 mM sodium bicarbonate, pH 9.6; the plates were sealed and incubated overnight. The wells were blocked with Blotto (5% nonfat dry milk, 5% normal bovine serum, 0.025% Tween 20 in PBS (PBST). The plates were then incubated with test horse sera, diluted 1:100 in Blotto, for 1 h at RT, washed as above, then incubated with anti-horse IgG(Fc)-HRP (United States Biochemical), diluted 1:10^5 in Blotto, for 1 h at RT and washed. The substrate, TM Blue Soluble reagent (200 μL/well; Intergen, Milford, Mass.) was added and incubated for 20 minutes with shaking, and the reaction stopped with the addition of 50 μL/well 1.0 N H2SO4 for 5 minutes with shaking. Absorbance at 450 nm was measured on a Dynex MR5000 microplate reader. Because each peptide caused a slightly different background absorbance, control wells containing no horse serum were included for each peptide tested.
Some of the sera from Missouri (4/10) could not be tested due to interference from a high level of hemolysis, resulting in low lamp feedback values. […] In order to confirm the serological status of FP-unreactive sera, they were tested in a western blot (data not shown) as well as in the antifluorescein-capture ELISA using the seven original peptides derived from the three major antigens mentioned above (FIG. 5). Sera (1:50 dilution) were tested for reactivity to four EIAV-derived, fluorescein-labeled peptides in an ELISA format as described in the methods. NHS, normal (uninfected) horse serum; Tx43 through Txll7, FP-nonreactive, Tx47 through pony 95, FP-reactive sera. Black bars, peptide R51F; hatched bars, R32; gray bars, pepl2; white bars, Sam50.

[3] = Behaviour of the R51 probe in solution (cyclization, dilution); assay type: physicochemical
Experimental: Because R51 contains two Cys residues that may form a loop in the native protein, the differences in reactivity were assessed between linear or cyclized peptide (cyclic by virtue of an intramolecular disulfide bond).

With “ADDWDNRHPLPNAPLVAPPQGPIPMT (Equine infectious anemia virus) [Sam50]” the “FP interaction with EIAV-positive sera” value [1] was “insensitive to EIAV-positive sera”.
With “R51-6CF: R51 peptide (SEQ ID NO 1) labeled with 6-carboxyfluorescein (IGCIERTHVFCHTG; cysteine pairing not given here; also: 6-carboxyfluorescein label, position not given here)” the “polarization values of negative serum samples” value ([1]; 110 AGID-negative sera, 1:100 dilution) was 73.6±3.0 mP, the “FP signal of R51 with positive sera” value [1] was > 300 mP and the “average mP value with field-infected sera” value ([1]; measurable sera of 153 field-infected animals, 1:100 dilution, ~2 nM peptide) was 150±55 mP.
In the case of “QQVEETFNLI (Equine infectious anemia virus) [R32QQ]”, the “maximum FP” value ([1]; 1:100 dilution of pony 95, R32 length series, fluorescein-6-isothiocyanate label) is reported as > 200 mP and the “FP reactivity with experimentally infected serum” value [1] is reported as “most sensitive peptide”.
For “LETWKLVKTSGVTPLPISSEANTGL (Equine infectious anemia virus) [Peptide 12]”, the “change in FP with purified antibodies from field-infected animal” value (anti-EIAV IgG) was “did not exhibit an increase in FP”, the “FP reactivity with experimentally infected serum” value [1] was “some reactivity” and the ELISA reactivity [2] was “reacted very strongly”. For the same substance, the “reactivity in the anti-fluorescein ELISA” value [2] was “strong and broad reactivity” and the “ELISA reactivity with FP-nonreactive sera” value [2] was “bind only weakly”.
For “APLVAPPQGPIPMT (Equine infectious anemia virus) [Sam50A]”, the “FP interaction with EIAV-positive sera” value [1] was “none of these analogs displayed a measurable interaction”.
For “KERQQVEETFNLI (Equine infectious anemia virus) [R32]”, the “change in FP with purified antibodies from field-infected animal” value (anti-EIAV IgG) was “did not exhibit an increase in FP”, the “FP reactivity with experimentally infected serum” value [1] was “some reactivity” and the ELISA reactivity [2] was “reacted very strongly”. The “reactivity in the anti-fluorescein ELISA” value [2] was “strong and broad reactivity” and the “ELISA reactivity with FP-nonreactive sera” value [2] was “no measurable antibody”.
In the case of “HPLPNAPLVAPPQGPIPMT (Equine infectious anemia virus) [Sam50H]”, the “FP interaction with EIAV-positive sera” value [1] is reported as “none of these analogs displayed a measurable interaction”.
In the case of “R51-5CF: R51 peptide labeled at the N-terminus with 5-carboxyfluorescein (5FAM-IGCIERTHVFCHTG; cysteine pairing not given here)”, the free-peptide polarization level (anti-EIAV IgG; probe 2 nM in PBS buffer alone, 5-carboxyfluorescein derivative) is reported as “about 60 mP”, the “FP in the presence of Lady IgG” value (anti-EIAV IgG; probe 2 nM, 60-100 μg/ml Lady IgG in PBS, 20 min) is reported as “around 140 MP” and the “FP signal of R51 with positive sera” value [1] is reported as 220 mP. For the same substance, the “FP reactivity with field-infected horse serum” value ([1]; field infected horses (Lady)) was “sensitive to serum from field infected horses”, the “polarization with strong positive EIAV antiserum” value ([1]; low-salt conditions, 1:100 dilution, experimental infection (Pony 95)) was “over 200 mP” and the “polarization of peptide before serum” value ([1]; low-salt conditions, starting value) was 50 mP.
For “IGCIERTHVFCHTG (Equine infectious anemia virus) [R51]”, the precipitation of probe ([3]; conditions that allow cyclization) was “prone to precipitation”, the stability of peptide ([3]; upon dilution) was “stable upon dilution” and the “sensitivity of cyclized vs linear peptide” value ([1]; cyclic by intramolecular disulfide bond, field isolates) was “more sensitive to field isolates than the linear form”. The “ELISA reactivity with FP-nonreactive sera” value [2] was “no measurable antibody”.
